Assay results from patent publication US20200181101A1, “BENZAMIDE INHIBITORS OF BACTERIAL LIPOPROTEIN SIGNAL PEPTIDASE” (The Scripps Research Institute, priority 2017, published 2020).
Square brackets hold non-standard residues; d marks the D form. Peptide text beside a SMILES is read from it. * marks the point of attachment. Sta = CC(C)C[C@H](N)[C@@H](O)CC(=O)O; Isovaleryl = CC(C)CC(=O)*

target: T1, Lsp from E. coli (Escherichia coli, UniProt P00804); experiment: Lsp FRET activity assay, IC50 determination; type: biochemical; conditions: not given
T1 construct: The full-length Lsp clone from E. coli (residues 1-164); His6 with enterokinase cleavage site (pET19b) (N); made in house; host or cells: E. coli Lemo21 (DE3), pET19b vector
T1 sequence (P00804 whole entry, the tested form may be a part): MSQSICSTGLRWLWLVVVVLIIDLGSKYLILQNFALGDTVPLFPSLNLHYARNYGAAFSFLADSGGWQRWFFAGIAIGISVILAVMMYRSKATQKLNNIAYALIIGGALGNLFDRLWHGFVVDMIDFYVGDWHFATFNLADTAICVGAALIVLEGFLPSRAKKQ
Experimental: […] […] 50 μM Lsp FRET substrate was subsequently added and the rate of substrate hydrolysis was measured by increase in fluorescence (excitation 355 nm, emission 495 nm) in 96-well plates on a PerkinElmer EnVision plate reader or Tecan Safire 2 microplate reader. Michaelis-Menten constants and […] were determined using GraphPad Prism software (GraphPad, Inc.).

Compound	inhibition of E. coli Lsp by known aspartic acid protease inhibitors	IC50	potency against Lsp, in words (SAR)	effect on cleaved substrate fluorescence
COC(=O)N[C@H](C(=O)N[C@@H](Cc1ccccc1)[C@@H](O)CN(Cc1ccc(-c2ccccn2)cc1)NC(=O)[C@@H](NC(=O)OC)C(C)(C)C)C(C)(C)C [atazaniavir, reference compound]	no known aspartic acid protease inhibitors			
CCC(CC)c1nnc(NC(=O)c2ccc(OS(=O)(=O)F)cc2O)s1 [Sk056-50-4]		290 µM		
O=S(=O)(N[C@H](CO)C(C(F)(F)F)C(F)(F)F)c1ccc(Cl)s1 [begacestat, reference compound]	no known aspartic acid protease inhibitors			
CCC(CC)c1nnc(NC(=O)c2ccc(OC)c(OC)c2)s1 [1b]			ablated the potency	
CCC(CC)c1nnc(NC(=O)c2ccc(OS(=O)(=O)F)cc2[N+](=O)[O-])s1 [Sk056-45-1]		46 µM		
COCCCOc1cc(C[C@@H](C[C@H](N)[C@@H](O)C[C@H](C(=O)NCC(C)(C)C(N)=O)C(C)C)C(C)C)ccc1OC [aliskiren, reference compound]	no known aspartic acid protease inhibitors			
CC(C)(C)NC(=O)[C@@H]1C[C@@H]2CCCC[C@@H]2CN1C[C@@H](O)[C@H](Cc1ccccc1)NC(=O)[C@H](CC(N)=O)NC(=O)c1ccc2ccccc2n1 [saquinavir, reference compound]	no known aspartic acid protease inhibitors			
N-(5-buty-1,3,4-oxadiazol-2-yl)-4,5-dimethoxy-2-nitrobenzamide [1e]			inactive	
CCC(CC)c1nnc(NC(=O)c2cc(OC)c(OC(C)C)cc2[N+](=O)[O-])s1 [1i, 4-isopropoxy-5-methoxy-2-nitro-N-(5-(pentan-3-yl)-1,3,4-thiadiazol-2-yl)benzamide]				no effect
CC(C)[C@H](O)C(=O)N[C@@H](C)C(=O)N[C@@H]1C(=O)N(C)CCc2ccccc21 [semagacestat, reference compound]	no known aspartic acid protease inhibitors			
CC(C)CC(=O)N[C@H](C(=O)N[C@H](C(=O)N[C@@H](CC(C)C)[C@@H](O)CC(=O)N[C@@H](C)C(=O)N[C@@H](CC(C)C)[C@@H](O)CC(=O)O)C(C)C)C(C)C [pepstatin, reference compound] (Isovaleryl-VV[Sta]A[Sta]-OH)	no known aspartic acid protease inhibitors			
CCC(CC)c1nnc(NC(=O)c2cc(OS(=O)(=O)F)ccc2[N+](=O)[O-])s1 [Sk054-144]		65 µM		

same assay, conditions: FRET-based assay, [Lsp] = 100 nM, mean (± SD); read-out: IC50

Compound	IC50
CCCCOc1cc([N+](=O)[O-])c(C(=O)Nc2nnc(C(CC)CC)s2)cc1OC [1g, 4-butoxy-5-methoxy-2-nitro-N-(5-(pentan-3-yl)-1,3,4-thiadiazol-2-yl)benzamide]	0.54 µM
CCC(CC)c1nnc(NC(=O)c2cc(OC)c(OC(C)C)cc2[N+](=O)[O-])s1 [1i, 4-isopropoxy-5-methoxy-2-nitro-N-(5-(pentan-3-yl)-1,3,4-thiadiazol-2-yl)benzamide]	0.21 µM
CCCCCCOc1cc([N+](=O)[O-])c(C(=O)Nc2nnc(C(CC)CC)s2)cc1OC [1h, 4-(hexyloxy)-5-methoxy-2-nitro-N-(5-(pentan-3-yl)-1,3,4-thiadiazol-2-y)benzamide]	0.11 µM

same assay, conditions: FRET-based assay, [Lsp] = 400 nM, mean (± SD); read-out: IC50

Compound	IC50
CCCCc1nnc(NC(=O)c2cc(OC)c(OC)cc2[N+](=O)[O-])s1 [1d]	29 µM
CCC(CC)c1nnc(NC(=O)c2ccc(OC)c(OC)c2)s1 [1b]	110 µM
CCC(CC)c1nnc(NC(=O)c2cc(OC)c(OC)cc2[N+](=O)[O-])s1 [1a, 4,5-dimethoxy-2-nitro-N-(5-(pentan-3-yl)-1,3,4-thiadiazol-2-yl)benzamide]	4.2 µM
N-(5-buty-1,3,4-oxadiazol-2-yl)-4,5-dimethoxy-2-nitrobenzamide [1e]	> 400 µM
CCOc1cc([N+](=O)[O-])c(C(=O)Nc2nnc(C(CC)CC)s2)cc1OC [1f, 4-ethoxy-5-methoxy-2-nitro-N-(5-(pentan-3-yl)-1,3,4-thiadiazol-2-yl)benzamide]	1.2 µM

same assay, conditions: Table 2, variation of R3; read-out: IC50

Compound	IC50
COc1cc(C(=O)Nc2nnc(CCc3ccccc3)s2)c([N+](=O)[O-])cc1OC [Sk052-88-2]	20 µM
CCCCc1nnc(NC(=O)c2cc(OC)c(OC)cc2[N+](=O)[O-])s1 [1d]	29 ± 0.6 µM
COC(=O)CCc1nnc(NC(=O)c2cc(OC)c(OC)cc2[N+](=O)[O-])s1 [Sk052-147-3]	> 200 µM
CCCCCc1nnc(NC(=O)c2cc(OC)c(OC)cc2[N+](=O)[O-])s1 [Sk052-147-2]	26 µM
CCC(CC)c1nnc(NC(=O)c2cc(OC)c(OC)cc2[N+](=O)[O-])s1 [1a, 4,5-dimethoxy-2-nitro-N-(5-(pentan-3-yl)-1,3,4-thiadiazol-2-yl)benzamide]	4.2 ± 1 µM
CCOC(=O)Cc1nnc(NC(=O)c2cc(OC)c(OC)cc2[N+](=O)[O-])s1 [Sk052-27-2]	78 µM
COc1cc(C(=O)Nc2nnc(C(C)(C)C)s2)c([N+](=O)[O-])cc1OC [Sk061-69-3]	36 µM
COc1cc(C(=O)Nc2nnc(C3CCCCC3)s2)c([N+](=O)[O-])cc1OC [Sk052-56]	> 400 µM
COc1cc(C(=O)Nc2nnc(C3CC3)s2)c([N+](=O)[O-])cc1OC [Sk052-147-1]	208 µM
CCCC(CCC)c1nnc(NC(=O)c2cc(OC)c(OC)cc2[N+](=O)[O-])s1 [Sk052-88-1]	1.1 µM
CCCCC(CC)c1nnc(NC(=O)c2cc(OC)c(OC)cc2[N+](=O)[O-])s1 (centres unmarked) [Sk061-69-4]	2.5 µM

same assay, conditions: Table 3; read-out: IC50

Compound	IC50
COc1cc(C(=O)Nc2ccc(C(C)C)nc2)c([N+](=O)[O-])cc1OC [Sk056-82-4]	> 400 µM

same assay, conditions: Table 4; read-out: IC50

Compound	IC50
CCC(CC)c1nnc(NC(=O)c2ccccc2C(=O)OC)s1 [Sk056-13-2]	12 µM
CCC(CC)c1nnc(NC(=O)c2ccc(OC)cc2[N+](=O)[O-])s1 [Sk052-146-2]	2.2 µM
CCC(CC)c1nnc(NC(=O)c2ccc(F)cc2[N+](=O)[O-])s1 [Sk054-91-3]	7.2 µM
CCC(CC)c1nnc(NC(=O)c2cc(OC)ccc2[N+](=O)[O-])s1 [Sk052-146-1]	3.6 µM
CCC(CC)c1nnc(NC(=O)c2ccc(OC)cc2N)s1 [Sk054-142]	11 µM
CCC(CC)c1nnc(NC(=O)c2ccccc2CC(=O)OC)s1 [Sk056-82-1]	21 µM
CCC(CC)c1nnc(NC(=O)c2ccccc2[N+](=O)[O-])s1 [Sk054-91-1]	11 ± 3 µM
CCC(CC)c1nnc(NC(=O)c2cc(OS(=O)(=O)On3nnc4ncccc43)ccc2[N+](=O)[O-])s1 [Sk054-141-1]	120 µM
CCC(CC)c1nnc(NC(=O)c2c(Cl)cccc2[N+](=O)[O-])s1 [Sk056-82-2]	260 µM
CCC(CC)c1nnc(NC(=O)c2ccc(OC)cn2)s1 [Sk054-91-2]	> 400 µM
CCC(CC)c1nnc(NC(=O)c2ccc(C(F)(F)F)cc2[N+](=O)[O-])s1 [Z123635394]	9.3 µM

same assay, conditions: Table 5, E = 100 nM; read-out: IC50

Compound	IC50
CCC(CC)c1nnc(NC(=O)c2cc(Cl)c(OCCCCCCN)cc2[N+](=O)[O-])s1 [Sk061-45]	> 4 µM
CCC(CC)c1nnc(NC(=O)c2cc(Cl)c(OC3CCC(C)(C)CC3)cc2[N+](=O)[O-])s1 [Sk061-31-1]	0.23 µM
CCC(CC)c1nnc(NC(=O)c2cc(Cl)c(Oc3ccc(NC(=O)OC(C)(C)C)cc3)cc2[N+](=O)[O-])s1 [Sk061-29]	0.64 µM
CCC(CC)c1nnc(NC(=O)c2cc(Cl)c(OC3CCC(F)(F)CC3)cc2[N+](=O)[O-])s1 [Sk061-31-2]	0.58 µM
CCC(CC)c1nnc(NC(=O)c2cc(Cl)c(Oc3ccc(O)cc3)cc2[N+](=O)[O-])s1 [Sk061-30-1]	> 4 µM
CCC(CC)c1nnc(NC(=O)c2cc(Cl)c(OCCCCCCNC(=O)OC(C)(C)C)cc2[N+](=O)[O-])s1 [Sk061-54]	~2.3 µM

same assay, conditions: Table 5, [Lsp] = 20 nM; read-out: IC50

Compound	IC50
CCC(CC)c1nnc(NC(=O)c2cc(OC)c(OC3CCCC3)cc2[N+](=O)[O-])s1 [Sk052-145-2]	0.073 µM
CCC(CC)c1nnc(NC(=O)c2cc(Cl)c(OC3CCCCC3)cc2[N+](=O)[O-])s1 [Sk056-29]	0.068 µM
CCC(CC)c1nnc(NC(=O)c2cc(Cl)c(OC3CCCC3)cc2[N+](=O)[O-])s1 [Sk054-116-2]	0.11 ± 0.012 µM
CCC(CC)c1nnc(NC(=O)c2cc(OC)c(OCc3ccccc3)cc2[N+](=O)[O-])s1 [Sk054-82-3]	2.9 µM
CCC(CC)c1nnc(NC(=O)c2cc(Cl)c(SC3CCCC3)cc2[N+](=O)[O-])s1 [Sk056-22-1]	0.02 µM

same assay, conditions: Table 6; read-out: IC50

Compound	IC50
O=C(O)CCSCCCCCc1nnc(NC(=O)c2cc(Cl)c(OC3CCCC3)cc2[N+](=O)[O-])s1 [Sk056-27]	11 µM
COC(=O)CCSCCCCCc1nnc(NC(=O)c2cc(Cl)c(OC3CCCC3)cc2[N+](=O)[O-])s1 [Sk056-26]	3.2 µM
O=C(Nc1nnc(CCCCCCl)s1)c1cc(Cl)c(OC2CCCC2)cc1[N+](=O)[O-] [Sk056-15]	3.8 µM
CCC(CC)c1nnc(NC(=O)c2cc(Cl)c(OC3CCCC3)cc2[N+](=O)[O-])s1 [Sk054-116-2]	0.11 ± 0.012 µM

same assay, conditions: Table 7, linker variation, E = 100 nM; read-out: IC50

Compound	IC50
CCC(CC)c1nnc(NC(=O)c2cc(Cl)c(OCCCNC(=O)OC(C)(C)C)cc2[N+](=O)[O-])s1 [Sk061-80-1]	1.7 µM
CCC(CC)c1nnc(NC(=O)c2cc(Cl)c(OCCCCNC(=O)OC(C)(C)C)cc2[N+](=O)[O-])s1 [Sk061-80-2]	1.6 µM
CCC(CC)c1nnc(NC(=O)c2cc(Cl)c(Oc3ccc(NC(=O)OC(C)(C)C)cc3)cc2[N+](=O)[O-])s1 [Sk061-29]	0.64 µM
CCC(CC)c1nnc(NC(=O)c2cc(Cl)c(OC3CCCN(C(=O)OC(C)(C)C)C3)cc2[N+](=O)[O-])s1 (centres unmarked) [Sk061-80-5]	0.83 µM
CCC(CC)c1nnc(NC(=O)c2cc(Cl)c(OCCCCCCNC(=O)OC(C)(C)C)cc2[N+](=O)[O-])s1 [Sk061-54]	2.3 µM

same assay, conditions: [S]=50 μM, [Lsp]=100 nM

Compound	Hill constant
CCC(CC)c1nnc(NC(=O)c2cc(OC)c(OC(C)C)cc2[N+](=O)[O-])s1 [1i, 4-isopropoxy-5-methoxy-2-nitro-N-(5-(pentan-3-yl)-1,3,4-thiadiazol-2-yl)benzamide]	approximately 1

same assay, conditions: biochemical analysis

Compound	manner of Lsp inhibition
CCC(CC)c1nnc(NC(=O)c2cc(OC)c(OC)cc2[N+](=O)[O-])s1 [1a, 4,5-dimethoxy-2-nitro-N-(5-(pentan-3-yl)-1,3,4-thiadiazol-2-yl)benzamide]	non-competitive
